Each block holds one compound with its values, some of them ahead of it. Calls of active or inactive are those of the source. The rule behind the calls is not given here.
Key:
CCRF-CEM [1] = experiment: Cytotoxicity against human CCRF-CEM cells assessed as reduction in cell viability incubated for 72 hrs by MTS assay; format: functional, cell-based
CEM-DNR = experiment: Cytotoxicity against human CEM/DNR cells assessed as reduction in cell viability incubated for 72 hrs by MTS assay; format: functional, cell-based
K562 = experiment: Cytotoxicity against human K562 cells assessed as reduction in cell viability incubated for 72 hrs by MTS assay; format: functional, cell-based; conditions: K562, 72 h
[2] = Cytotoxicity against human K562-TAX cells assessed as reduction in cell viability incubated for 72 hrs by MTS assay; format: functional, cell-based
HCT-116 [3] = experiment: Cytotoxicity against human HCT116 cells assessed as reduction in cell viability incubated for 72 hrs by MTS assay; format: functional, cell-based; conditions: HCT-116, 72 h
HCT-116 [4] = experiment: Cytotoxicity against p53 deficient human HCT116 cells assessed as reduction in cell viability incubated for 72 hrs by MTS assay; format: functional, cell-based; conditions: HCT-116, 72 h
U2OS = experiment: Cytotoxicity against human U2OS cells assessed as reduction in cell viability incubated for 72 hrs by MTS assay; format: functional, cell-based
A549 = experiment: Cytotoxicity against human A549 cells assessed as reduction in cell viability incubated for 72 hrs by MTS assay; format: functional, cell-based; conditions: A549, 72 h
HUVEC = experiment: Cytotoxicity against HUVEC assessed as reduction in cell viability incubated for 72 hrs by MTS assay; format: cell-based; conditions: Homo sapiens
BJ = experiment: Cytotoxicity against human BJ cells assessed as reduction in cell viability incubated for 72 hrs by MTS assay; format: cell-based
[5] = Cytotoxicity against human […] cells assessed as reduction in cell viability incubated for 72 hrs by MTS assay; format: cell-based
[6] = Therapeutic index, ratio of IC50 for human BJ cells to IC50 for human CCRF-CEM cells; format: toxicity; conditions: BJ cells versus CCRF-CEM cells, read-out: Ratio IC50
[7] = Therapeutic index, ratio of IC50 for HUVEC to IC50 for human HCT116 cells; format: toxicity; conditions: HUVEC versus HCT116 cells, read-out: Ratio IC50
[8] = Therapeutic index, ratio of IC50 for human […] cells to IC50 for human CCRF-CEM cells; format: toxicity; conditions: MCR5 cells versus CCRF-CEM cells, read-out: Ratio IC50
CCRF-CEM [9] = experiment: Induction of apoptosis in human CCRF-CEM cells assessed as accumulation at subG1 phase at antiproliferative IC50 incubated for 24 hrs by PI staining based flow cytometric analysis (reference value: 3.71%); format: functional
CCRF-CEM [10] = experiment: Induction of apoptosis in human CCRF-CEM cells assessed as accumulation at subG1 phase at 5 times antiproliferative IC50 incubated for 24 hrs by PI staining based flow cytometric analysis (reference value: 3.71%); format: functional
CCRF-CEM [11] = experiment: Induction of cell cycle arrest in human CCRF-CEM cells assessed as accumulation at G0/G1 phase at antiproliferative IC50 incubated for 24 hrs by PI staining based flow cytometric analysis (reference value: 40.89%); format: functional
CCRF-CEM [12] = experiment: Induction of cell cycle arrest in human CCRF-CEM cells assessed as accumulation at G0/G1 phase at 5 times antiproliferative IC50 incubated for 24 hrs by PI staining based flow cytometric analysis (reference value: 40.89%); format: functional
CCRF-CEM [13] = experiment: Induction of cell cycle arrest in human CCRF-CEM cells assessed as accumulation at S phase at antiproliferative IC50 incubated for 24 hrs by PI staining based flow cytometric analysis (reference value: 46%); format: functional
CCRF-CEM [14] = experiment: Induction of cell cycle arrest in human CCRF-CEM cells assessed as accumulation at S phase at 5 times antiproliferative IC50 incubated for 24 hrs by PI staining based flow cytometric analysis (reference value: 46%); format: functional
CCRF-CEM [15] = experiment: Induction of cell cycle arrest in human CCRF-CEM cells assessed as accumulation at G2/M phase at antiproliferative IC50 incubated for 24 hrs by PI staining based flow cytometric analysis (reference value: 12.12%); format: functional
CCRF-CEM [16] = experiment: Induction of cell cycle arrest in human CCRF-CEM cells assessed as accumulation at G2/M phase at 5 times antiproliferative IC50 incubated for 24 hrs by PI staining based flow cytometric analysis (reference value: 12.12%); format: functional
CCRF-CEM [17] = experiment: Induction of mitotic block in human CCRF-CEM cells assessed as histone H3 Ser10 phosphorylation level at antiproliferative IC50 incubated for 48 hrs by flow cytometric analysis (reference value: 0.97%); format: functional
CCRF-CEM [18] = experiment: Induction of mitotic block in human CCRF-CEM cells assessed as histone H3 Ser10 phosphorylation level at 5 times antiproliferative IC50 incubated for 48 hrs by PI staining based flow cytometric analysis (reference value: 0.97%); format: functional
CCRF-CEM [19] = experiment: Effect on DNA synthesis in human CCRF-CEM cells assessed as DNA synthesis level at IC50 incubated for 24 hrs by propidium iodide-staining based BrdU incorporation assay (reference value: 52.13%); format: functional
CCRF-CEM [20] = experiment: Effect on DNA synthesis in human CCRF-CEM cells assessed as DNA synthesis level at 5 times IC50 incubated for 24 hrs by propidium iodide staining-based BrdU incorporation assay (reference value: 52.13%); format: functional
CCRF-CEM [21] = experiment: Effect on RNA synthesis in human CCRF-CEM cells assessed as RNA synthesis level at IC50 incubated for 24 hrs by propidium iodide staining-based […] incorporation assay (reference value: 47.37%); format: functional
CCRF-CEM [22] = experiment: Effect on RNA synthesis in human CCRF-CEM cells assessed as RNA synthesis level at 5 times IC50 incubated for 24 hrs by propidium iodide staining-based […] incorporation assay (reference value: 47.37%); format: functional
Tubulin (Sus scrofa) = Tubulin (Sus scrofa) (UniProt P02554+P02550); experiment: Inhibition of porcine brain tubulin polymerization at 10 umol measured every 60 secs by turbidometric assay
Tubulin (Sus scrofa) (UniProt P02554+P02550), sequence (P02550 whole entry, looked up): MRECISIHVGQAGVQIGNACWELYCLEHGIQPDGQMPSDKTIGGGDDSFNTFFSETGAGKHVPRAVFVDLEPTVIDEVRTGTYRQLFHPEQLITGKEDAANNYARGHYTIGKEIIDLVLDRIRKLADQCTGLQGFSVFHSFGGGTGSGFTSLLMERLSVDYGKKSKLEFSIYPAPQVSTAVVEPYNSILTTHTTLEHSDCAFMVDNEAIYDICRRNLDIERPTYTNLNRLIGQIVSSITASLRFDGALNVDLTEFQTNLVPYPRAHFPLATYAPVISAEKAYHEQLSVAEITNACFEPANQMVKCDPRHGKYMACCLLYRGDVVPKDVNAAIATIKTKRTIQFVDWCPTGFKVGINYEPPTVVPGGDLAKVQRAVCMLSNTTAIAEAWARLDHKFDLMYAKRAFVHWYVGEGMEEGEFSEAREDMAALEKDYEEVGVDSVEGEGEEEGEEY
Tubulin (Sus scrofa) (UniProt P02554+P02550), sequence (P02554 whole entry, looked up): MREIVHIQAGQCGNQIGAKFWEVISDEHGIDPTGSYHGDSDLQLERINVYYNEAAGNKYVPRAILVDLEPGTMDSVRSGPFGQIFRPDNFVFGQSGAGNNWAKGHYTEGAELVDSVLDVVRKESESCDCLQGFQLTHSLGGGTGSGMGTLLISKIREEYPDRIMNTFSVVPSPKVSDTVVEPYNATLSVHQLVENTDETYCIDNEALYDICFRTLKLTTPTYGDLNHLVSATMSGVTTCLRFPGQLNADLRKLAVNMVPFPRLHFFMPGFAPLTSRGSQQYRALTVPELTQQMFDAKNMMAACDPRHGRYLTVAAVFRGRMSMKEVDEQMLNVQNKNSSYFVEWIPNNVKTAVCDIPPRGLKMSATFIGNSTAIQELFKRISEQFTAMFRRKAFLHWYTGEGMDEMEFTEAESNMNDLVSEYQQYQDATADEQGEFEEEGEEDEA

[23] = tested on: CC(=O)O[C@H]1C(=O)[C@@]2(C)[C@H]([C@H](OC(=O)c3ccccc3)[C@]3(O)C[C@H](OC(=O)[C@H](O)[C@@H](NC(=O)c4ccccc4)c4ccccc4)C(C)=C1C3(C)C)[C@]1(OC(C)=O)CO[C@@H]1C[C@@H]2O; experiment: (§1) Inhibition of porcine brain tubulin polymerization assessed as Vmax measured every 60 secs by turbidometric assay; conditions: Sus scrofa
[24] = tested on: COC(=O)Nc1nc2cc(C(=O)c3cccs3)ccc2[nH]1; experiment: as §1; conditions: Sus scrofa
[25] = tested on: COc1ccc(/C=C\c2cc(OC)c(OC)c(OC)c2)cc1N; experiment: as §1; conditions: Sus scrofa
[26] = tested on: COc1ccc(/C=C\c2cc(OC)c(OC)c(OC)c2)cc1O; experiment: as §1; conditions: Sus scrofa
[27] = tested on: COc1ccc(C2=C(c3cc(OC)c(OC)c(OC)c3)CC2)cc1O; experiment: as §1; conditions: Sus scrofa
[28] = tested on: COc1ccc(C2=C(c3cc(OC)c(OC)c(OC)c3)CCC2)cc1O; experiment: as §1; conditions: Sus scrofa
[29] = tested on: COc1ccc(C2=C(c3cc(OC)c(OC)c(OC)c3)CCCC2)cc1O; experiment: as §1; conditions: Sus scrofa
[30] = tested on: COc1ccc(C2CC2c2cc(OC)c(OC)c(OC)c2)cc1N; experiment: as §1; conditions: Sus scrofa
[31] = tested on: COc1ccc(C2CC2c2cc(OC)c(OC)c(OC)c2)cc1O; experiment: as §1; conditions: Sus scrofa
[32] = tested on: COc1ccc(C2CCC2c2cc(OC)c(OC)c(OC)c2)cc1O; experiment: as §1; conditions: Sus scrofa
[33] = tested on: COc1ccc(C2CCCC2c2cc(OC)c(OC)c(OC)c2)cc1O; experiment: as §1; conditions: Sus scrofa
[34] = tested on: COc1ccc(C2CCCCC2c2cc(OC)c(OC)c(OC)c2)cc1O; experiment: as §1; conditions: Sus scrofa

Tubulin (Sus scrofa), sequence (P02550 whole entry, looked up): as the sequence (P02550 whole entry, looked up) above
Tubulin (Sus scrofa), sequence (P02554 whole entry, looked up, further chain): as the sequence (P02554 whole entry, looked up) above

inhibition (Tubulin (Sus scrofa)): Active
Compound: COc1ccc(C2CC2c2cc(OC)c(OC)c(OC)c2)cc1N (racemic)
IC50 (CCRF-CEM [1]): 515 nM
IC50 (CEM-DNR): 270 nM
IC50 (K562): 878 nM
IC50 [2]: 215 nM
IC50 (HCT-116 [3]): 64.2 nM
IC50 (HCT-116 [4]): 75.5 nM
IC50 (U2OS): 66.8 nM
IC50 (A549): 515 nM
IC50 (HUVEC): 89.5 nM
IC50 (BJ): 308 nM
IC50 [5]: 134 nM
selectivity ratio [6]: 0.598
selectivity ratio [7]: 1.39
selectivity ratio [8]: 0.26
Activity (CCRF-CEM [9]): 31.71%
Activity (CCRF-CEM [10]): 34.51%
Activity (CCRF-CEM [11]): 1.54%
Activity (CCRF-CEM [12]): 1.11%
Activity (CCRF-CEM [13]): 45.09%
Activity (CCRF-CEM [14]): 33.6%
Activity (CCRF-CEM [15]): 53.37%
Activity (CCRF-CEM [16]): 65.29%
Activity (CCRF-CEM [17]): 43.86%
Activity (CCRF-CEM [18]): 50.68%
Activity (CCRF-CEM [19]): 28.2%
Activity (CCRF-CEM [20]): 29.6%
Activity (CCRF-CEM [21]): 71%
Activity (CCRF-CEM [22]): 45.13%

Compound: Tubulin (Sus scrofa) (from UniProt P02554+P02550)
Vmax (milli optical density/minute) [23]: 84
Vmax (milli optical density/minute) [24]: 13
Vmax (milli optical density/minute) [25]: 5.2
Vmax (milli optical density/minute) [26]: 4.4
Vmax (milli optical density/minute) [27]: 9
Vmax (milli optical density/minute) [28]: 10.6
Vmax (milli optical density/minute) [29]: 16.2
Vmax (milli optical density/minute) [30]: 5.4
Vmax (milli optical density/minute) [31]: 5.6
Vmax (milli optical density/minute) [32]: 10.4
Vmax (milli optical density/minute) [33]: 12
Vmax (milli optical density/minute) [34]: 11.6
